Experimental data reported in US12370159B2, “Compositions and methods of use of beta-hydroxy-beta-methylbutyrate (HMB) and probiotics” (priority 2016, dated 2025).

How the values were obtained:
[1] = after HMB is fed; cited from earlier work
[2] = healthy young or old adults; cited from earlier work
[3] = HMB kinetics before and after two weeks of BC30 probiotic supplementation (Example 2)

Row | Compound | Loss of HMB to urine [1] | Side effects [2] | Probiotic-induced increase in peak plasma HMB levels, CaHMB compared with HMB-FA [3]
1 | CC(C)(O)CC(=O)O [HMB, β-hydroxy-β-methylbutyric acid] | 20-50% | no side effects | –
2 | Calcium β-Hydroxy-β-Methylbutyrate [CaHMB] | – | – | larger
